This passage reports Kd and IC50 results from patent publication US9226929B2, “Pharmaceutically active disubstituted triazine derivatives” (Bayer Intellectual Property GMBH, priority 2011, dated 2016).

One test addresses T1, CDK9/Cyclin T1 (Homo sapiens, UniProt P50750).
T1 construct: His; purchased Invitrogen
The experiment in a line: LanthaScreen Eu Kinase Binding Assay, CDK9/Cyclin T1. The following applies: tracer 236, read-out: CDK9/Cyclin T1 (activity range), Kd. Here is the method: (§1) This protocol describes how the LanthaScreen Eu Kinase Binding Assay was performed to determine dissociation constants (Kd) of compounds of general formula (I) and CDK/Cyclin complexes. The principle behind this assay is based upon the binding and displacement of an Alexa Fluor 647-labeled tracer, which binds to the active site of kinases. Binding of the tracer to the kinase is detected using a Eu-labeled antibody. Simultaneous binding of both the tracer and antibody to the kinase gives rise to a FRET-signal. Binding of an inhibitor to the kinase competes for binding with the tracer, resulting in a loss of FRET.
(§2) The compounds of general formula (I) summarized in Table 1 were diluted from a 10 mM DMSO stock solution 1:10 in a total volume of 15 μL DMSO. This compound predilution was then serial diluted 1:3 over 8 steps in DMSO and briefly spun down. Each compound solution was now diluted 1:33.33 in kinase buffer (HEPES: 20 mM, pH: 8.0; MgCl2: 10 mM; DTT: 1 mM; Brij-35: 0,01%), mixed thoroughly and spun down. For every sample, 5 μL of the diluted compound were mixed with 5 μL tracer working solution (e.g. 60 nM tracer 236 in kinase buffer for CDK2/Cyclin A) and 5 μL CDK/Cyclin/Anti-GST-AB-working solution (e.g. 15 nM CDK2/Cyclin A, 1:250 dilution of Anti-GST-AB in kinase buffer) in a well of a small volume 384 well plate (Corning Incorporated, Corning, N.Y., USA; order no. 3673). The tracer concentration was adjusted to its dissociation constant (Kd) for the CDK/Cyclin, which was 30 nM for CDK2/Cyclin A, CDK7/Cyclin H and CDK9/Cyclin T1, 20 nM for CDK8/Cyclin C, and 35 nM for CDK9/Cyclin K. For negative controls, in each well 5 μL of DMSO working solution (3% DMSO diluted in kinase buffer) was mixed with 5 μL Anti-GST-AB working solution (e.g. 1:250 dilution of Anti-GST-AB in kinase buffer for CDK2/Cyclin A) and 5 μL Tracer working solution (e.g. 60 nM Tracer 236 in kinase buffer for CDK2/Cyclin A). For positive controls, in each well 5 μL of DMSO working solution (3% DMSO diluted in kinase buffer) was mixed with 5 μL CDK/Cyclin/Anti-GST-AB-working solution: (e.g. 15 nM CDK2/Cyclin A, 1:250 dilution of Anti-GST-AB in kinase buffer) and 5 μL Tracer working solution (e.g. 60 nM Tracer 236 in kinase buffer for CDK2/Cyclin A). Positive and negative controls were calculated from at least 8 different sample wells. The 384 well plates were mixed in a Teleshaker plate mixer (Beckman Coulter, Brea, Calif., USA) at 2000 rpm for 40 sec, and incubated for 1 h at room temperature before reading. The FRET signal was measured at 340 nm excitation, 665 nm and 615 nm emission (for the kinase tracer and LanthaScreen Eu-AB, respectively) with an Envision spectrophotometer (Perkin Elmer, Waltham, Mass., USA) with […]. Kd values were determined from the sigmoidal dose response curves with the software Quattro Workflow (Quattro GmbH, Munich, Germany).

In another test the target is T2, CDK9 (Homo sapiens, UniProt P50750).
T2 construct: purchased Invitrogen
The experiment in a line: Lance Ultra KinaSelect Assay, CDK9. The format is biochemical. Particulars: cyclin partner (T1 or K) not stated; read-out: CDK9 LANCE assay (activity range), IC50. Here is the method: (§3) 2. Measurement of half maximal inhibitory concentration to CDKs This protocol describes how the Lance Ultra KinaSelect Assay was performed to determine half maximal inhibitory concentration (1050) of compounds of general formula (I) and CDK/Cyclin complexes. The principle behind this enzymatic assay is based upon the phosphorylation of the ULight-Peptide Substrat. It is detected by using a specific
(§4) EU-labeled anti-phospho peptide antibody. The binding of the Eu-labeled anti-phospho peptide antibody to the phosphorylated ULight labeled peptide gives rise to a FRET-signal. Binding of an inhibitor to the kinase prevents phosphorylation of the ULight-MBP Substrat, resulting in a loss of FRET.
(§5) The compounds of general formula (I) summarized in Table 5 were diluted from a 10 mM DMSO stock solution 1:10 in a total volume of 15 μL DMSO. This compound predilution was then serial diluted 1:3 over 8 steps in DMSO and briefly spun down. Each compound solution was now diluted 1:20 in Enzymatic Buffer (HEPES: 50 mM, pH: 7.5; MgCl2: 10 mM; EGTA: 1 mM; DTT: 2 mM; Tween-20: 0.01%), mixed thoroughly and spun down. For every sample, 2 μL of the diluted compound were mixed with 6 μL CDK/Cyclin/Substrat solution and 2 μL ATP solution in a well of a small volume 384 well plate (Corning Incorporated, Corning, N.Y., USA; order no. 3673). The CDK/Cyclin was diluted to the appropriate concentration (see Table 3) and the ATP concentration was adjusted to its […] for the CDK/Cyclin, which was 3 μM for CDK2/Cyclin A, 20 μM for CDK1/Cyclin B1, 25 μM for CDK7/Cyclin H and CDK9/Cyclin T1, 55 μM for CDK6/Cyclin D3, 90 μM for CDK4/Cyclin D1 and 125 μM for CDK9/Cyclin K. For negative controls, in each well 2 μL of DMSO solution (1% final DMSO assay concentration) was mixed with 6 μL substrate solution (50 nM ULight MBP final assay concentration) and 2 μL ATP solution (appropriate final concentration see Table 3). For positive controls, in each well 2 μL of DMSO solution (1% final DMSO assay concentration) was mixed with 6 μL CDK/Cyclin/Substrat (appropriate final concentration see Table 3) and 2 μL Tracer ATP solution (appropriate final concentration see Table 3). Positive and negative controls were calculated from at least 8 different sample wells. The 384 well plates were mixed in a Teleshaker plate mixer (Beckman Coulter, Brea, Calif., USA) at 2000 rpm for 40 sec, and incubated for 1 h at room temperature. Before reading, 10 μL the detection buffer (Lance Detection Buffer 1×; EDTA: […]; Eu-Anti-P-MBP: see Table 3) was added. The FRET signal was measured at 340 nm excitation, 665 nm and 615 nm emission (for the kinase tracer and LanthaScreen Eu-AB, respectively) with an Envision spectrophotometer (Perkin Elmer, Waltham, Mass., USA) with 50 μs delay and 300 μs integration time. IC50 values were determined from the sigmoidal dose response curves with the software Quattro Workflow (Quattro GmbH, Munich, Germany).

For another test, the target named is T3, CDK9/Cyclin K (Homo sapiens, UniProt P50750).
T3 construct: His; purchased Invitrogen
Kind of test: LanthaScreen Eu Kinase Binding Assay, CDK9/Cyclin K. The following applies: tracer 236, read-out: CDK9/Cyclin K (activity range), Kd. How it is done: as §1, §2

A further test deals with T4, CDK1/CyclinB1 (Homo sapiens, UniProt P06493).
T4 construct: purchased Carna
The experiment in a line: Lance Ultra KinaSelect Assay, CDK1. The format is biochemical. The following applies: ATP 20 μM; read-out: CDK1 LANCE assay (activity range), IC50. How it is done: as §3, §4, §5

Test [1] concerns the target T5, CDK2/CyclinA (Homo sapiens, UniProt P24941).
T5 construct: GST; purchased Proqinase
Kind of test: Lance Ultra KinaSelect Assay, CDK2. Type of test: biochemical. Particulars: ATP 3 μM; read-out: CDK2 LANCE assay (activity range), IC50. Here is the method:
as §3, §4, §5

The target of test [2] is T6, CDK7/CyclinH/MAT1 (Homo sapiens, UniProt P50613).
T6 construct: His; purchased Carna Biosciences
The experiment in a line: Lance Ultra KinaSelect Assay, CDK7. The format is biochemical. Particulars: ATP 25 μM; read-out: CDK7 LANCE assay (activity range), IC50. Here is the method: as §3, §4, §5

The target of another test is T7, CDK6/CyclinD3 (Homo sapiens, UniProt Q00534).
T7 construct: purchased Carna
The experiment in a line: Lance Ultra KinaSelect Assay, CDK6. Particulars: ATP 55 μM; read-out: CDK6 LANCE assay (activity range), IC50. The format is biochemical. How it is done: as §3, §4, §5

Another test addresses T8, CDK4/CyclinD1 (Homo sapiens, UniProt P11802).
T8 construct: purchased Invitrogen
Kind of test: Lance Ultra KinaSelect Assay, CDK4. The format is biochemical. The following applies: ATP 90 μM; read-out: CDK4 LANCE assay (activity range), IC50. Here is the method:
as §3, §4, §5

The target of test [3] is T6, CDK7/CyclinH/MAT1. The experiment in a line: LanthaScreen Eu Kinase Binding Assay, CDK7. Particulars: tracer 236, read-out: CDK7 (activity range), Kd. Here is the method: as §1, §2
In test [4] the target is T5, CDK2/CyclinA. The experiment in a line: LanthaScreen Eu Kinase Binding Assay, CDK2. The following applies: tracer 236, read-out: CDK2 (activity range), Kd. Here is the method: as §1, §2
In test [5] the test system is NF-kappaB reporter gene activation. The experiment in a line: NF-kappaB Reporter Assay. The format is cell-based. Particulars: Homo sapiens; HEK293 cells, pNFkBluc reporter, 20 ng/ml TNF alpha, 5 h; read-out: NF-kappaB activation (activity range), IC50. How it is done: 3.2 NF-kappaB Reporter Assay
Cells were maintained in RPMI cell culture medium+glutamine (PAN Biotech GmbH, Aidenbach, Germany) supplemented with 10% fetal calf serum (PAA Laboratories GmbH, Pasching, Austria) and grown at 37° C., 5% CO2. HEK293 cells grown to 50% confluence were transfected with the Amaxa® Cell Line Nucleofector® Kit V (Lonza, Basel, Switzerland, catalog #VCA-1003). Transfections were performed according to manufacturer's optimized protocol for transfection of HEK293 cells. In brief, 2×10^5 cells were transfected with 5 μg highly purified plasmid DNA. Cells were transfected with a NF-kappa B reporter plasmid (pNFkBluc), pTALluc for control, or pMAXGFP for transfection control. After transfection, cells were taken up in 500 μL RPMI1640 cell culture medium, incubated for 1 h at 37° C., and 4.5 ml DMEM without phenol red were added per transfection. Transfected cells were seeded in 96 well plates (Greiner Bio-One, Frickenhausen, Germany, catalog #655098) with 100 μL cell suspension per well and incubated for 48 h. To each well, 100 μL DMEM with 2× concentrated compound diluted from 10 mM DMSO stocks, or 100 μL DMEM with 0.4% DMSO for control wells, was added. The compounds of general formula (I) summarized in Table 6 were used in this assay. Cells were stimulated with 20 ng/ml TNF alpha, and plates were incubated for 5 h at 37° C./5% CO2. Cell culture supernatants were removed to leave 100 μl medium per well, followed by addition of 100 μl Bright Glo luciferase assay reagent (Promega, Madison, Wis., USA, catalog #E2620), and shaking for 5 minutes in the dark. Luminescence was measured with a Victor Photospectrometer (Perkin Elmer, Waltham, Mass., USA). IC50 values were calculated with the software Excel Fit (IDBS, Guildford, UK) from 2-fold dilution series comprising at least 10 concentrations in duplicates.

T6 sequence (P50613 whole entry): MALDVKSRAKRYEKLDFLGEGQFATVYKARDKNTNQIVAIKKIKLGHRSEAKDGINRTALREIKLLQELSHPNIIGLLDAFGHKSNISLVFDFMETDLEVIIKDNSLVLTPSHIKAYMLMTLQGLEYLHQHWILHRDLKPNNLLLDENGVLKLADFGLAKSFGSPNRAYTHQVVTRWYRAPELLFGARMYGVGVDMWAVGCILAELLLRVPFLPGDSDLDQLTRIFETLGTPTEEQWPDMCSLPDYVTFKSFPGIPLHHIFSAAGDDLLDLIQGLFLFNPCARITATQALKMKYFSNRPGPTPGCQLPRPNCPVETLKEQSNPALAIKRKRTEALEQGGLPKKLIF
T6 sequence (P51946 whole entry partner): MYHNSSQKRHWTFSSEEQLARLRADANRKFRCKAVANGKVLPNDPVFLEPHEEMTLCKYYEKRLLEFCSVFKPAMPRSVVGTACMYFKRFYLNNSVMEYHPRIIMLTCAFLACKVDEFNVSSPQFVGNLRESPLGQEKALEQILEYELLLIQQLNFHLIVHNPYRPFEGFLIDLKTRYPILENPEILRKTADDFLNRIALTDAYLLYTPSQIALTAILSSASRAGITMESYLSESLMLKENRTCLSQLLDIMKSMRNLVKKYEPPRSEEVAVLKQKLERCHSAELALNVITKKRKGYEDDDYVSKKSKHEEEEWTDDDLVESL
T6 sequence (P51948 whole entry partner): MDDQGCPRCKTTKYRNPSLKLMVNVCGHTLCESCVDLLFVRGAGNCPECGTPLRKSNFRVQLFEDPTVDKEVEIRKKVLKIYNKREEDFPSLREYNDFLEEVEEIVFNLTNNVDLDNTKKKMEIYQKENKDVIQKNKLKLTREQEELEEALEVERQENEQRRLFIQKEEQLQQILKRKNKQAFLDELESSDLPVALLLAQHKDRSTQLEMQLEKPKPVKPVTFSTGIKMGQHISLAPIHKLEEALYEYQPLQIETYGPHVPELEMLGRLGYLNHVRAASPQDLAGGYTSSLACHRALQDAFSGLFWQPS
T2 sequence (P50750 whole entry): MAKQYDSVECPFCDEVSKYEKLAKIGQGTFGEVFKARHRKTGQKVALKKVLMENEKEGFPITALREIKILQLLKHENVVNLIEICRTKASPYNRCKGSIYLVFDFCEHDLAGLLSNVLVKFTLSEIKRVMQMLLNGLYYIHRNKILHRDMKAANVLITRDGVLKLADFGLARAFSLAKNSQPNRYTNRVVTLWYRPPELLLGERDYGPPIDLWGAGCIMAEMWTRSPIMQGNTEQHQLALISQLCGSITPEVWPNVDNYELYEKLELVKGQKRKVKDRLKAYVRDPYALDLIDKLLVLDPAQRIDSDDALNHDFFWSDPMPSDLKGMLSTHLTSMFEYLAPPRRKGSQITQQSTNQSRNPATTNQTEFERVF
T1 sequence (P50750 whole entry): as above
T1 sequence (O60563 whole entry partner): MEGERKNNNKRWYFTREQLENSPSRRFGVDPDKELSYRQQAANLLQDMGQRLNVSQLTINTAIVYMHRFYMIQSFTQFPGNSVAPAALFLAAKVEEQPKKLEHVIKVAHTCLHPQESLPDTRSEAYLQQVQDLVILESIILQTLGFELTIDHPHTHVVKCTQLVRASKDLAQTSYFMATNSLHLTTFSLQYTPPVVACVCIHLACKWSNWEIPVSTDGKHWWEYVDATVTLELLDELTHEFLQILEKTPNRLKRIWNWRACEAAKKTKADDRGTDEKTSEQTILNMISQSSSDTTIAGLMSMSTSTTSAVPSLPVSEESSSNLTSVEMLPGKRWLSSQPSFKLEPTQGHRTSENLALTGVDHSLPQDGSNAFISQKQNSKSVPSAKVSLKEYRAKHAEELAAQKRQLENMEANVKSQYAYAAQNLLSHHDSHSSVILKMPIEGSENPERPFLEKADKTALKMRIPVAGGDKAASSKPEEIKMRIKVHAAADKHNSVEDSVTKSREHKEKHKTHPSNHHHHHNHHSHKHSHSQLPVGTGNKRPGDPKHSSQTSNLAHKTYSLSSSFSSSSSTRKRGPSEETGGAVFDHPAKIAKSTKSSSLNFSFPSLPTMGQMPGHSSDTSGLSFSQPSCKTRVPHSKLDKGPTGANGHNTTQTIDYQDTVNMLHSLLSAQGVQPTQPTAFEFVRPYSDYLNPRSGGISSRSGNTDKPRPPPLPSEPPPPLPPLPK
T3 sequence (P50750 whole entry): as the sequence (P50750 whole entry) above
T3 sequence (O75909 1-357 isoform O75909-1 partner): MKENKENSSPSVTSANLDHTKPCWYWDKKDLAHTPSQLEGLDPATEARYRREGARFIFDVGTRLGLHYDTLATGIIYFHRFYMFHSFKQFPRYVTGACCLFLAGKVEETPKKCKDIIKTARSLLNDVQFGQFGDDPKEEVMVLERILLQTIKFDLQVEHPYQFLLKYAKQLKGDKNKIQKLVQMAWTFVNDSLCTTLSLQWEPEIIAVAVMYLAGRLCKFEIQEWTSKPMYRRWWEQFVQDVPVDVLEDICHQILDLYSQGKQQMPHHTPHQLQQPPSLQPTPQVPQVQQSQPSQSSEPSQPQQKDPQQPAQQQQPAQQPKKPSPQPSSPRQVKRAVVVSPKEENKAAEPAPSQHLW
T7 sequence (Q00534 whole entry): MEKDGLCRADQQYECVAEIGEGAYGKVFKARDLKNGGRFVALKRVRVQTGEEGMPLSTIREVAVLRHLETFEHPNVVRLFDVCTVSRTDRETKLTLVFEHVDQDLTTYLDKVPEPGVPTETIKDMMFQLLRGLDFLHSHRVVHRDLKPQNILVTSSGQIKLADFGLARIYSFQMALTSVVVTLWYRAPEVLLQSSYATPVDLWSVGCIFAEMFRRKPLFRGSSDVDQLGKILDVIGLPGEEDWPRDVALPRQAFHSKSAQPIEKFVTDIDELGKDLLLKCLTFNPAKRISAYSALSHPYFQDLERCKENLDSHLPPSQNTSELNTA
T7 sequence (P30281 whole entry partner): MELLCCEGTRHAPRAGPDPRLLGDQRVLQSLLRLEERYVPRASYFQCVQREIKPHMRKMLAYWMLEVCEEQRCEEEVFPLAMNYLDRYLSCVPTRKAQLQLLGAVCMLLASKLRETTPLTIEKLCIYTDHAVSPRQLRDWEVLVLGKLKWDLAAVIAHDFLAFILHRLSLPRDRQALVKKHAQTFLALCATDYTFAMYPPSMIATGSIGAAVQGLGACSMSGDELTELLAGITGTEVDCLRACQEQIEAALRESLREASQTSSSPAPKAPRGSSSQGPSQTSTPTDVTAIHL
T4 sequence (P06493 whole entry): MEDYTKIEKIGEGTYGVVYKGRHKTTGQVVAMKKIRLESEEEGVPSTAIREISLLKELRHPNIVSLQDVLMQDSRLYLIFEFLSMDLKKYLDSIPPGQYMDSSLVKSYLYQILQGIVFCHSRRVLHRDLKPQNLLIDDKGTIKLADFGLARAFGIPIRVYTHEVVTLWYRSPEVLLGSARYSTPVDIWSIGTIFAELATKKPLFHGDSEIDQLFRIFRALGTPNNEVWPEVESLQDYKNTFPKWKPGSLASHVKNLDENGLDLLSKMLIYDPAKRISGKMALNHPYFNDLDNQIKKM
T4 sequence (P14635 whole entry partner): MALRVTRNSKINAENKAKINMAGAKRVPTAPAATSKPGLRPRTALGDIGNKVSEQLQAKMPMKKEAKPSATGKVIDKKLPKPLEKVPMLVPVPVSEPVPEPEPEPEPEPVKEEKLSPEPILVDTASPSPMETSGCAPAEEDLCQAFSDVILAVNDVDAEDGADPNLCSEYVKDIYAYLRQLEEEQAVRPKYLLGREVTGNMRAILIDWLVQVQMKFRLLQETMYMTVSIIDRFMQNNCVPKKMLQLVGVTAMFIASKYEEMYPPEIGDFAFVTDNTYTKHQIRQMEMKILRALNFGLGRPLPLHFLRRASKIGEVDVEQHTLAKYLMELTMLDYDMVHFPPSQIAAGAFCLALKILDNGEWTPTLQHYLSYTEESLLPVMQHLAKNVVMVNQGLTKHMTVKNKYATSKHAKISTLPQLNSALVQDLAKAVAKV
T8 sequence (P11802 whole entry): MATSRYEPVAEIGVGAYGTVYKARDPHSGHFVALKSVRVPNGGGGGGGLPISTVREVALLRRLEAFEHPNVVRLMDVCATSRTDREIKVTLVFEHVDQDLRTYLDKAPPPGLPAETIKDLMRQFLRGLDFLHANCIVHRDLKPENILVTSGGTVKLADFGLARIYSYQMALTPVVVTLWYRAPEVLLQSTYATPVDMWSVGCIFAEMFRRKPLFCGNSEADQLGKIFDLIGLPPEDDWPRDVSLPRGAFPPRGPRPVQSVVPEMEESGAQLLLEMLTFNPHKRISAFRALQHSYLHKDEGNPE
T8 sequence (P24385 whole entry partner): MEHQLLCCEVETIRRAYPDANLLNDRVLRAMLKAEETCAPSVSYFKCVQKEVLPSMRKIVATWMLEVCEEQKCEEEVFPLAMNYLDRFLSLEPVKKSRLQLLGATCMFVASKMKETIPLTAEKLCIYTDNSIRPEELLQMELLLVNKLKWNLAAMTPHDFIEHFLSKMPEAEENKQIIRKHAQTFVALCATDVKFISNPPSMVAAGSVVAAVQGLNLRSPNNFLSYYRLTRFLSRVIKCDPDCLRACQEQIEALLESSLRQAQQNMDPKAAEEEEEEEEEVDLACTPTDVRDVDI

On to `CN(C)CCC1CCCCN1c1ncnc(Nc2cccc(CS(N)(=O)=O)c2)n1` (racemic) [Compound B8, rac-3-[(4-(2-(2-(Dimethylamino)ethyl)piperidin-1-yl)-1,3,5-triazin-2-yl)amino]benzenemethanesulfonamide], for which the Kd at CDK9/Cyclin T1 and at CDK9/Cyclin K was 1 to 10 µM throughout. For the same molecule, the IC50 on CDK9 is 1 to 10 µM; at CDK1/CyclinB1, greater than 10 µM; on CDK2/CyclinA [1], greater than 10 µM; on CDK7/CyclinH/MAT1 [2], greater than 10 µM; at CDK6/CyclinD3 it was greater than 10 µM; at CDK4/CyclinD1 it was greater than 10 µM.

As to `NS(=O)(=O)Cc1cccc(Nc2ncnc(N3CCC[C@@H]3COCc3ccccc3)n2)c1` [Compound B30, (R)-3-[(4-(2-(Benzyloxymethyl)pyrrolidin-1-yl)-1,3,5-triazin-2-yl)amino]benzenemethanesulfonamide], the Kd on CDK7/CyclinH/MAT1 [3] is greater than 10 µM; at CDK9/Cyclin T1, 0.1 to 1 µM; at CDK2/CyclinA [4], greater than 10 µM; at CDK9/Cyclin K, 0.1 to 1 µM. Also, the IC50 in test [5] is greater than 10 µM.

As to `C[C@H]1CCCN1c1ncnc(Nc2cccc(CS(N)(=O)=O)c2)n1` [Compound B53, (S)-3-[(4-(2-Methylpyrrolidin-1-yl)-1,3,5-triazin-2-yl)amino]-benzenemethanesulfonamide], the values for the Kd at CDK7/CyclinH/MAT1 [3], at CDK9/Cyclin T1 and at CDK2/CyclinA [4] were greater than 10 µM, less than 0.1 µM and 1 to 10 µM, respectively. Also, the IC50 at CDK9 lay in the range of 0.1 to 1 µM; on CDK2/CyclinA [1], 1 to 10 µM.

On to `NS(=O)(=O)Cc1cccc(Nc2ncnc(N3CCC[C@@H]3C(F)(F)F)n2)c1` [Compound B54, (R)-3-[(4-(2-(Trifluoromethyl)pyrrolidin-1-yl)-1,3,5-triazin-2-yl)amino]-benzenemethanesulfonamide], for which the Kd on CDK7/CyclinH/MAT1 [3] was greater than 10 µM; on CDK9/Cyclin T1, 0.1 to 1 µM; on CDK2/CyclinA [4], 1 to 10 µM. In addition, the IC50 at CDK9 and at CDK2/CyclinA [1] was 1 to 10 µM each time.
